Laboratory results: patent US7118895B2, “Process for producing aglycon by using diglycosidase and flavor-improved food containing the aglycon and converting agent to be used in the process” (Amano Enzyme Inc., priority 2000, dated 2006)

Columns and labels:
[1] = system: Crude diglycosidase; test: Examination of substrate concentration in the conversion into isoflavone aglycons by diglycosidase using soybean materials; type: biochemical, Penicillium multicolor IAM7153;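 note: percent of the isoflavone family total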
Summary of the method: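 Reaction at 55° C, shaken, pH 4.0 (20 mM acetate), using crude diglycosidase from a 1.88 AU/mL enzyme solution on soy flour, soymilk, defatted soybean or soy protein concentrate at 2, 5, 10, 20 or 30% (w/v). Isoflavone aglycons quantified by HPLC of ethanol extracts at 0, 1, 3, 6 h.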

[2] = system: Diglycosidase derived from P. multicolor; test: Reactivity toward various isoflavone glycosides (HPLC); type: biochemical, Penicillium multicolor; parameters: glucoside / aglycon: unit not given here; conditions: 55 °C, pH 4.0
Summary of the method: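 Aglycone liberation was measured by reversed-phase HPLC (260 nm, calibration-curve quantitation) after ethanol extraction at 0, 1, 3 and 6 h. Reactions ran at 55° C, pH 4.0 (20 mM acetate), with each glycoside (from 2 mM methanol stock) and 0.75 AU/mL enzyme solution.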

COc1cc2c(=O)c(-c3ccc(O)cc3)coc2cc1O[C@@H]1O[C@H](COC(=O)CC(=O)O)[C@@H](O)[C@H](O)[C@H]1O [malonylglycitin, 6″-O-malonylglycitin]
Decomposition efficiency: ratio of each glycoside/aglycon within its isoflavone family ([1]; roasted soy flour, substrate concentration 5%, heat treatment of enzyme yes, reaction time 6 h): not detected
Decomposition efficiency: ratio of each glycoside/aglycon within its isoflavone family ([1]; roasted soy flour, substrate concentration 10%, heat treatment of enzyme no, reaction time 0 h): not detected
Decomposition efficiency: ratio of each glycoside/aglycon within its isoflavone family ([1]; roasted soy flour, substrate concentration 10%, heat treatment of enzyme no, reaction time 1 h): not detected
Decomposition efficiency: ratio of each glycoside/aglycon within its isoflavone family ([1]; roasted soy flour, substrate concentration 10%, heat treatment of enzyme no, reaction time 3 h): not detected
Decomposition efficiency: ratio of each glycoside/aglycon within its isoflavone family ([1]; roasted soy flour, substrate concentration 10%, heat treatment of enzyme no, reaction time 6 h): not detected
Decomposition efficiency: ratio of each glycoside/aglycon within its isoflavone family ([1]; roasted soy flour, substrate concentration 10%, heat treatment of enzyme yes, reaction time 6 h): not detected
Decomposition efficiency: ratio of each glycoside/aglycon within its isoflavone family ([1]; roasted soy flour, substrate concentration 20%, heat treatment of enzyme no, reaction time 0 h): not detected
Decomposition efficiency: ratio of each glycoside/aglycon within its isoflavone family ([1]; roasted soy flour, substrate concentration 20%, heat treatment of enzyme no, reaction time 1 h): not detected
Decomposition efficiency: ratio of each glycoside/aglycon within its isoflavone family ([1]; roasted soy flour, substrate concentration 20%, heat treatment of enzyme no, reaction time 3 h): not detected
Decomposition efficiency: ratio of each glycoside/aglycon within its isoflavone family ([1]; roasted soy flour, substrate concentration 20%, heat treatment of enzyme no, reaction time 6 h): not detected
Decomposition efficiency: ratio of each glycoside/aglycon within its isoflavone family ([1]; roasted soy flour, substrate concentration 20%, heat treatment of enzyme yes, reaction time 6 h): not detected
Decomposition efficiency: ratio of each glycoside/aglycon within its isoflavone family ([1]; roasted soy flour, substrate concentration 30%, heat treatment of enzyme no, reaction time 0 h): not detected
Decomposition efficiency: ratio of each glycoside/aglycon within its isoflavone family ([1]; roasted soy flour, substrate concentration 30%, heat treatment of enzyme no, reaction time 1 h): not detected
Decomposition efficiency: ratio of each glycoside/aglycon within its isoflavone family ([1]; roasted soy flour, substrate concentration 30%, heat treatment of enzyme no, reaction time 3 h): not detected
Decomposition efficiency: ratio of each glycoside/aglycon within its isoflavone family ([1]; roasted soy flour, substrate concentration 30%, heat treatment of enzyme no, reaction time 6 h): not detected
Decomposition efficiency: ratio of each glycoside/aglycon within its isoflavone family ([1]; roasted soy flour, substrate concentration 30%, heat treatment of enzyme yes, reaction time 6 h): not detected
Decomposition efficiency: ratio of each glycoside/aglycon within its isoflavone family ([1]; soymilk, substrate concentration 2%, heat treatment of enzyme no, reaction time 0 h): 28.2%
Decomposition efficiency: ratio of each glycoside/aglycon within its isoflavone family ([1]; soymilk, substrate concentration 2%, heat treatment of enzyme no, reaction time 1 h): not detected
Decomposition efficiency: ratio of each glycoside/aglycon within its isoflavone family ([1]; soymilk, substrate concentration 2%, heat treatment of enzyme no, reaction time 3 h): not detected
Decomposition efficiency: ratio of each glycoside/aglycon within its isoflavone family ([1]; soymilk, substrate concentration 2%, heat treatment of enzyme no, reaction time 6 h): not detected
Decomposition efficiency: ratio of each glycoside/aglycon within its isoflavone family ([1]; soymilk, substrate concentration 2%, heat treatment of enzyme yes, reaction time 6 h): 48.2%
Decomposition efficiency: ratio of each glycoside/aglycon within its isoflavone family ([1]; soymilk, substrate concentration 5%, heat treatment of enzyme no, reaction time 0 h): 50.6%
Decomposition efficiency: ratio of each glycoside/aglycon within its isoflavone family ([1]; soymilk, substrate concentration 5%, heat treatment of enzyme no, reaction time 1 h): 24.6%
Decomposition efficiency: ratio of each glycoside/aglycon within its isoflavone family ([1]; soymilk, substrate concentration 5%, heat treatment of enzyme no, reaction time 3 h): 7.5%
Decomposition efficiency: ratio of each glycoside/aglycon within its isoflavone family ([1]; soymilk, substrate concentration 5%, heat treatment of enzyme no, reaction time 6 h): not detected
Decomposition efficiency: ratio of each glycoside/aglycon within its isoflavone family ([1]; soymilk, substrate concentration 5%, heat treatment of enzyme yes, reaction time 6 h): 43.3%
Decomposition efficiency: ratio of each glycoside/aglycon within its isoflavone family ([1]; soymilk, substrate concentration 10%, heat treatment of enzyme no, reaction time 0 h): 41.1%
Decomposition efficiency: ratio of each glycoside/aglycon within its isoflavone family ([1]; soymilk, substrate concentration 10%, heat treatment of enzyme no, reaction time 1 h): 26.4%
Decomposition efficiency: ratio of each glycoside/aglycon within its isoflavone family ([1]; soymilk, substrate concentration 10%, heat treatment of enzyme no, reaction time 3 h): 10.5%
Decomposition efficiency: ratio of each glycoside/aglycon within its isoflavone family ([1]; soymilk, substrate concentration 10%, heat treatment of enzyme no, reaction time 6 h): 4.2%
Decomposition efficiency: ratio of each glycoside/aglycon within its isoflavone family ([1]; soymilk, substrate concentration 10%, heat treatment of enzyme yes, reaction time 6 h): 37.0%
Decomposition efficiency: ratio of each glycoside/aglycon within its isoflavone family ([1]; soymilk, substrate concentration 20%, heat treatment of enzyme no, reaction time 0 h): 41.3%
Decomposition efficiency: ratio of each glycoside/aglycon within its isoflavone family ([1]; soymilk, substrate concentration 20%, heat treatment of enzyme no, reaction time 1 h): 27.8%
Decomposition efficiency: ratio of each glycoside/aglycon within its isoflavone family ([1]; soymilk, substrate concentration 20%, heat treatment of enzyme no, reaction time 3 h): 9.4%
Decomposition efficiency: ratio of each glycoside/aglycon within its isoflavone family ([1]; soymilk, substrate concentration 20%, heat treatment of enzyme no, reaction time 6 h): 5.9%
Decomposition efficiency: ratio of each glycoside/aglycon within its isoflavone family ([1]; soymilk, substrate concentration 20%, heat treatment of enzyme yes, reaction time 6 h): 38.8%
Decomposition efficiency: ratio of each glycoside/aglycon within its isoflavone family ([1]; soymilk, substrate concentration 30%, heat treatment of enzyme no, reaction time 0 h): 43.0%
Decomposition efficiency: ratio of each glycoside/aglycon within its isoflavone family ([1]; soymilk, substrate concentration 30%, heat treatment of enzyme no, reaction time 1 h): 33.1%
Decomposition efficiency: ratio of each glycoside/aglycon within its isoflavone family ([1]; soymilk, substrate concentration 30%, heat treatment of enzyme no, reaction time 3 h): 15.9%
Decomposition efficiency: ratio of each glycoside/aglycon within its isoflavone family ([1]; soymilk, substrate concentration 30%, heat treatment of enzyme no, reaction time 6 h): 7.7%
Decomposition efficiency: ratio of each glycoside/aglycon within its isoflavone family ([1]; soymilk, substrate concentration 30%, heat treatment of enzyme yes, reaction time 6 h): 37.5%
aglycon ([2]; Reaction time 0 h): 0
glucoside ([2]; Reaction time 0 h): 100
aglycon ([2]; Reaction time 1 h): 78.3
glucoside ([2]; Reaction time 1 h): 21.7
aglycon ([2]; Reaction time 3 h): 84.5
glucoside ([2]; Reaction time 3 h): 15.5
aglycon ([2]; Reaction time 6 h): 86
glucoside ([2]; Reaction time 6 h): 14
